Experimental data taken from ChEMBL document CHEMBL1149735, “Stereoselective synthesis and antimalarial activity of alpha-artelinic acid from artemisinin” (J Nat Prod, 1992).
Active and inactive are the calls of the source. No cut-off for these calls is given here.

What was measured:
[1] = Toxicity in Swiss mouse; assay type: organism-based; conditions: in vivo
Plasmodium knowlesi [2] = test: Antimalarial activity as parasite elimination after 24 hrs against Plasmodium knowlesi infected Rhesus monkey at 30 mg/kg intravenous dose; assay type: functional, organism-based; design: dose 30 mg/kg
Plasmodium knowlesi [3] = test: Antimalarial activity as cures at day 50 in Plasmodium knowlesi infected Rhesus monkey assessed at 15 mg/kg intravenous dose for 3 days; assay type: functional, organism-based; design: dose 15 mg/kg
Plasmodium knowlesi [4] = test: Antimalarial activity as parasite elimination up to day 50 against Plasmodium knowlesi infected Rhesus monkey at 30 mg/kg intravenous dose over 3 days; assay type: functional, organism-based; design: dose 30 mg/kg

SMILES: C[C@@H]1[C@H](OCc2ccc(C(=O)O)cc2)O[C@@H]2O[C@@]3(C)CC[C@@H]4[C@@H](C)CC[C@@H]1[C@]24OO3 [ARTELINIC ACID]
- LD50 [1]: 1000 mg/kg
- Activity (Plasmodium knowlesi [2]): Active
- Activity (Plasmodium knowlesi [3]): inactive
- Activity (Plasmodium knowlesi [4]): Active
